# Measured values published in PMC3938834, “De Novo Peptide Design and Experimental Validation of Histone Methyltransferase Inhibitors” (PLoS ONE, 2014).
# Like-named read-outs stand apart in the source and are kept apart here. No end group written: not given here.
# What was measured:
# [1] = target: T1, EZH2 (reconstituted recombinant PRC2 containing full length EZH2, SUZ12, EED, RBAP46/48) (Homo sapiens, UniProt Q15910); experiment: radiometric EZH2 HMT enzymatic assay, 384-well Flashplate, 10-point dose titrations; assay type: biochemical
# T1 construct: reconstituted recombinant PRC2 (containing full length EZH2, SUZ12, EED, RBAP46/48)
# Procedure: Experiments were performed using radiometric EZH2 enzymatic assays prepared individually or in a semi-automated fashion on a 384-well platform. For the experiments shown in Figures 3.A, 3.C, and 3.D, 4 [drawing 50] g of oligonucleosomes was used per reaction. For the experiments shown in Figures 3.C–D, 3 [drawing 51] g of PRC2 complex were added. For all other HMT assays (Figure 4, Figure 5, and Table 2) the following balanced conditions (at Km for cofactor and substrate) were used. […] The putative peptide inhibitors were tested in single point assays and in 10-point dose titrations. The total volume of the reaction mixture was 30 [drawing 55] L. Reactions were incubated for 1 hour at [drawing 56] C. Reactions terminated by the addition of 10 [drawing 57] L, 5× Laemmli Sample Buffer were loaded onto 15% Tri-Glycine-Polyacrylamide gels and resolved by PAGE. Resolved proteins were transferred to PVDF membrane at 65 V for 2 hours. Membranes were stained with CBB, destained, dried, and exposed to imaging plates for 24 hours. Images were detected using an FLA-7000 bioimaging system (Fujifilm). Reactions terminated by the addition of SAH to a final concentration of 850 [drawing 58] M were transferred to a 384-well Flashplate (Perkin Elmer) and incubated for 90 min. Liquids were aspirated and wells washed with 1×60 [drawing 59] L of wash buffer (50 mM Tris, pH 8.5, 200 mM NaCl, 0.01% NP-40). Detection of incorporated radioactivity in Flashplates was carried out using a Topcount instrument (Perkin Elmer). Potential inhibitory peptides were tested in single point assays and in 10-point dose titrations. Mechanism of Action Enzymatic Assays were performed under the same conditions and using the same protocol. However, in the Mechanism of Action Enzymatic assays the assays were performed with varied enzyme, substrate, or cofactor concentration to identify the mechanism of inhibition.
# In order to assess the inhibitory capability of the candidate peptides experimentally, HMT enzymatic assays were conducted. These HMT assays assessed the EZH2-dependent transfer of tritiated methyl-groups from the methyl-donor SAM to reconstituted oligonucleosomes (see Methods for details).
# (§1) To quantitatively measure the inhibition properties of the designed sequences, peptide dose titrations were performed. The concentration of peptide required to suppress 50% of the enzymatic activity (i.e. half-maximal inhibitory concentration, [drawing 76] ) and the Hill coefficient (measure of cooperativity of binding) were calculated (Table 2).
# Understanding the mechanism of action allows us to determine whether the competitive inhibition targeted by the design framework and the input biological constraints has been successful.
# EZH2 = details: small molecule inhibitor quoted for reference; cited from earlier work
# Procedure: as §1, with “concentration,” for “concentration, [drawing 76]”
# T1 sequence (Q15910 whole entry): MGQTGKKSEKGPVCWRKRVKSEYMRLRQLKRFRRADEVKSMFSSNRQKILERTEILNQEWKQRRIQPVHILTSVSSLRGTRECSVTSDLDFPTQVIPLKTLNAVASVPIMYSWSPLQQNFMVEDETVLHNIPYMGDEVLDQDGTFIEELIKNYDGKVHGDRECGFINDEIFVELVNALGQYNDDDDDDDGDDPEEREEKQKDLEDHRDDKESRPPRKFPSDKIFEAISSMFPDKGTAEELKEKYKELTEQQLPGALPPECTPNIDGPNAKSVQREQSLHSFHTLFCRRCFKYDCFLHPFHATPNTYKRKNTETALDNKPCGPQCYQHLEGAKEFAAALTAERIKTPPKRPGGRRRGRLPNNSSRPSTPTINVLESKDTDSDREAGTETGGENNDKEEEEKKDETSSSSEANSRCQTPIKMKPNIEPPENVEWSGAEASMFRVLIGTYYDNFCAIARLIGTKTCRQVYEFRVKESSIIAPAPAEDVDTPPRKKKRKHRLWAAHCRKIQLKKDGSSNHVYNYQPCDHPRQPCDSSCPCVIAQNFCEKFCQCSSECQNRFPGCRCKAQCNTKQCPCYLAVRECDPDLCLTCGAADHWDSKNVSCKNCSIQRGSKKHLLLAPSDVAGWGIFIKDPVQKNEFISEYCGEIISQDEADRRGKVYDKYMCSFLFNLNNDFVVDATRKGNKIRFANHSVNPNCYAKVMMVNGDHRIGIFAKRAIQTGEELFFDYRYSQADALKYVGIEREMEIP
# T1 sequence (Q15022 whole entry partner): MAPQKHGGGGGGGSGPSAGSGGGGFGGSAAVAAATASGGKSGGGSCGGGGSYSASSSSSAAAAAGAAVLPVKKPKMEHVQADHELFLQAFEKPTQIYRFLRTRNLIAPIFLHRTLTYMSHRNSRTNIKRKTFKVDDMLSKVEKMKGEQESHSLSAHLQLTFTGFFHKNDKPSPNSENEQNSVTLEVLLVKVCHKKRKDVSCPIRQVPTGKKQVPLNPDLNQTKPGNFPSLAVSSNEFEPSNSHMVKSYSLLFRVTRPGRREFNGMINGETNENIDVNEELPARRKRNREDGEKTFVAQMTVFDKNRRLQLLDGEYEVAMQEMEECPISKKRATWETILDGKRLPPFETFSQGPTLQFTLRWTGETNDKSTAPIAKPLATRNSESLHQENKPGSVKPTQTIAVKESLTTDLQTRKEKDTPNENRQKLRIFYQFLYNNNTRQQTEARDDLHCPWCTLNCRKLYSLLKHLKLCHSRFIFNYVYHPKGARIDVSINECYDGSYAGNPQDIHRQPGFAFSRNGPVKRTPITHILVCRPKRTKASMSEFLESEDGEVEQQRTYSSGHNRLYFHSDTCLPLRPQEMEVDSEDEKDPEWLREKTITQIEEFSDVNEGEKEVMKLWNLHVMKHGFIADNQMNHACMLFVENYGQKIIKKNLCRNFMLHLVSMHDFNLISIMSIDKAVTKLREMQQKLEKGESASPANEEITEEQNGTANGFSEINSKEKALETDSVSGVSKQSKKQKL
# T1 sequence (O75530 whole entry partner): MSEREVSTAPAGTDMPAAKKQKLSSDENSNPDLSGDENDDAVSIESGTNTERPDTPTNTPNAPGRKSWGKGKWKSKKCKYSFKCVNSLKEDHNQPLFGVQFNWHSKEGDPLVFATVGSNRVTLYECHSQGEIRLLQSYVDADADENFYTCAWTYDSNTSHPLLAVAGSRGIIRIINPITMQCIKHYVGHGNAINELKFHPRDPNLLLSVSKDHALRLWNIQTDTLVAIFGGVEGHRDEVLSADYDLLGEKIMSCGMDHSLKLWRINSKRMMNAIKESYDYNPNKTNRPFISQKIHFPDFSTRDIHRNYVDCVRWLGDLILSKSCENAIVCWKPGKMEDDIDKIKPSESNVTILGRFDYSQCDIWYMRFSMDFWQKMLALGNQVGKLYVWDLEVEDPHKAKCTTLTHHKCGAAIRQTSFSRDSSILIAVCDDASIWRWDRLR
# T1 sequence (Q09028 whole entry partner): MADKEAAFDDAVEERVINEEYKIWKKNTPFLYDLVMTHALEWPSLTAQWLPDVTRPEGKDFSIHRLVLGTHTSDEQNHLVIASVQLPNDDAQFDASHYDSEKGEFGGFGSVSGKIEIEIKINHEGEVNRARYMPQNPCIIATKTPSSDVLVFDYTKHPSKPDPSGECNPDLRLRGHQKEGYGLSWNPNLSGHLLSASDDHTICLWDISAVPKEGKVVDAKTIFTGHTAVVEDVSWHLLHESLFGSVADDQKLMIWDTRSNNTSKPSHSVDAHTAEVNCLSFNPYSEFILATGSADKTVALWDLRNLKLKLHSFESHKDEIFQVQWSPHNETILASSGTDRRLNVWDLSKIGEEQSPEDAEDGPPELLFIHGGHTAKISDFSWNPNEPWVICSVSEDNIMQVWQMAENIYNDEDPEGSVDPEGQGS
Compound,IC50 ([1]; read-out: IC50) [µM],also measured
GKAPRKQLASAKKAAATPRTG [SQ010],54.9 ± 1.26,
CCC(CC)n1ccc2c(C(=O)NCc3c(C)cc(C)[nH]c3=O)cc(C#N)cc21 [EI1],,IC50 (EZH2): ~0.015 µM
GKAPRKQLAPKAATKNARATS [SQ026],19.6 ± 1.12,
GKAPRKQLASKAARAATPKTG [SQ020],,IC50 [1]: 34.2 ± 1.46 µM

# Continued, in another order:
IC50 ([1]; read-out: IC50) [µM],Compound,also measured
41 ± 1.19,GKAPRKQLANRKWWKNYPRDG [SQ040],
13.6 ± 1.24,GKAPRKQLARRKWWFNYPQNG [SQ037],"IC50 ([1]; Figure 5, high throughput radiometric assay, SQ037 versus native and mutated peptides, value printed in the picture without unit, read-out: IC50): 8.05 µM"
39.7 ± 1.17,GKAPRKQLARKNWWKNYPRDG [SQ043],
